{"source": "patent US6043212A", "about": "“Recombinant C140 receptor, its agonists and antagonists, and nucleic acids encoding the receptor” (COR Therapeutics, Inc., priority 1995, dated 2000)", "target": "T1, C140 receptor (Mus musculus, UniProt P55086)", "T1 construct": "expressed in transfected cells; host or cells: frog oocytes injected with C140 receptor cRNA", "T1 sequence (P55086 26-399)": "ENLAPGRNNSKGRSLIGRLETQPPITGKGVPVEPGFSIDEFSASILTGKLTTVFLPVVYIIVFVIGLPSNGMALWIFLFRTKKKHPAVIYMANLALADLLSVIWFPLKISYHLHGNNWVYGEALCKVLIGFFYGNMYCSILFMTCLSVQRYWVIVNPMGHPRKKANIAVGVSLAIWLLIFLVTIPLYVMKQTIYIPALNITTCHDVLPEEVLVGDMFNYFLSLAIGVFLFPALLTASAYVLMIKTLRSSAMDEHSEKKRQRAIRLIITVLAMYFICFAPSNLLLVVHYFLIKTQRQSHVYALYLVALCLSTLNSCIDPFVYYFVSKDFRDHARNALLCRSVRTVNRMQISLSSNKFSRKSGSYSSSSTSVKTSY", "experiment": "Activation of frog oocytes injected with C140 receptor cRNA by proteases", "format": "cell-based", "conditions": "FIG. 9c", "source_text": "FIGS. 9a and 9b show the ability of plasmin and kallikrein respectively to activate oocytes injected with C140 cRNA (open circles) or water (crosses) as control."}
{"substance": "trypsin", "values": [{"measurement": "Activation of oocytes injected with C140 receptor cRNA versus substance K receptor cRNA", "value": "differential effect"}]}
